In patent US10875860B2, “Azaindenoisoquinoline compounds and uses thereof” (Purdue Research Foundation, priority 2016, dated 2020):
Like-named read-outs stand apart in the source and are kept apart here.

How the values were obtained:
Top1 = target: T1, Top1 (Homo sapiens, UniProt P11387); experiment: Top1-mediated DNA cleavage assay; format: biochemical; parameters: Top1 inhibitory activity level / Top1 inhibitory activity score: key to the marks not given beside the values; settings: for Enzyme Inhibitory Activity Top1: DNA cleavage relative to 1 μM MJ-III-65 (19) and 1 μM camptothecin (18); for Top1 inhibitory activity level: series 1
T1 sequence (P11387 1-765): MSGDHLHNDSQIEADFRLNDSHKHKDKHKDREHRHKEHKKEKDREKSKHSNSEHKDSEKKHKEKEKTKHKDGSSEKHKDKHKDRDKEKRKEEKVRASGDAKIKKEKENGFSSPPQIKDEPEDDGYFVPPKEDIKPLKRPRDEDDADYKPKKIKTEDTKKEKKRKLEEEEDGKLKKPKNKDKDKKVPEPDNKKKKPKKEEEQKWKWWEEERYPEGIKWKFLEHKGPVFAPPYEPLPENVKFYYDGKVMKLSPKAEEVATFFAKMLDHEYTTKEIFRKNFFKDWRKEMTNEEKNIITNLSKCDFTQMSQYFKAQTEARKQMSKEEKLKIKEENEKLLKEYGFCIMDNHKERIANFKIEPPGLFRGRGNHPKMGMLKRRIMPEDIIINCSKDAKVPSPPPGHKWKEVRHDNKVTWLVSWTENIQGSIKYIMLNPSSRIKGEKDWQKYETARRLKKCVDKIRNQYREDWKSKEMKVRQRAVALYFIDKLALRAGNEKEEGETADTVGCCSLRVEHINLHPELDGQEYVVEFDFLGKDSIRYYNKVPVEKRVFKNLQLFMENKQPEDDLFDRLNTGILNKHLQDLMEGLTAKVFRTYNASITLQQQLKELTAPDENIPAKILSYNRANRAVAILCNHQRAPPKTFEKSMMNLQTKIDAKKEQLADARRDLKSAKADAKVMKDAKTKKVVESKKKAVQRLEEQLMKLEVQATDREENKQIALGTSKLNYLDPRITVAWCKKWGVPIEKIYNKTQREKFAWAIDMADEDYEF

Tdp1 = Tdp1 (Homo sapiens, UniProt Q9NUW8); experiment: Recombinant Tdp1 assay; format: biochemical
Tdp1, sequence (Q9NUW8 whole entry): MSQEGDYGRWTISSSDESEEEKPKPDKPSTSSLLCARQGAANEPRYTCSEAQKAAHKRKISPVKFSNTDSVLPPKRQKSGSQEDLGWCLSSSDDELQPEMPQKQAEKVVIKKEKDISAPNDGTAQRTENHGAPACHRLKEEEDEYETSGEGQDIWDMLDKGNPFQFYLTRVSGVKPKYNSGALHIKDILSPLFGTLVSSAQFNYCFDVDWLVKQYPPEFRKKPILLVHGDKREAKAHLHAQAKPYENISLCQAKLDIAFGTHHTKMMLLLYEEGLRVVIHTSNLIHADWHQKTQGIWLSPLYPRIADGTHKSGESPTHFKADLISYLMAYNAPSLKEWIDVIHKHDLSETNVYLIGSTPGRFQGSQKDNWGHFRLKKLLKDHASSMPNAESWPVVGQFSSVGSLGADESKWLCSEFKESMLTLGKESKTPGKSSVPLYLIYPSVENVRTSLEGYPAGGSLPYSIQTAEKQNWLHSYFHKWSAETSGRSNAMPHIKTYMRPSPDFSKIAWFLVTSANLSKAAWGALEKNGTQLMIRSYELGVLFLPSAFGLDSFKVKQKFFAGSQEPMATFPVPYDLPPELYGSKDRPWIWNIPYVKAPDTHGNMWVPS

recombinant human TDP2 = target: T2, recombinant human TDP2 (Homo sapiens, UniProt O95551); experiment: Recombinant Tdp2 assay; format: biochemical
T2 sequence (O95551 1-362): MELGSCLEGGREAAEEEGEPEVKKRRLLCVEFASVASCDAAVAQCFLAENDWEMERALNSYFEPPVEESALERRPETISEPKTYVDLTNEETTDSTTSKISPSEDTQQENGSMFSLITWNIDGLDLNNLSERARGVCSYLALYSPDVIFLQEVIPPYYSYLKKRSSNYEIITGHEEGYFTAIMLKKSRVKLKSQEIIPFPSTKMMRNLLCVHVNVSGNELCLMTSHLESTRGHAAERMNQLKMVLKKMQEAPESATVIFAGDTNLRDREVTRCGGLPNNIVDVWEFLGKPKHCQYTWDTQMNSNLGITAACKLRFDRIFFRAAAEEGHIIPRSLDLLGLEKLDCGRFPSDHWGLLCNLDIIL
Procedure: TDP2 reactions were carried out as described previously with the following modifications. […] Reactions were terminated and treated similarly to whole-cell extract and recombinant Tdp1 reactions (see previous paragraph).

[1] = test system: NCI-60 panel of human cancer cell lines; experiment: NCI-60 screen, mean graph midpoint over all cell lines; settings: for GI50: Homo sapiens
MCF-7 = experiment: NCI-60 cytotoxicity, MCF-7; settings: Homo sapiens, MCF7, read-out: Cytotoxicity (GI50) Breast MCF-7
HOP-62 = experiment: NCI-60 cytotoxicity, HOP-62; settings: Homo sapiens, HOP-62, read-out: Cytotoxicity (GI50) Lung HOP-62
SF-539 = experiment: NCI-60 cytotoxicity, SF-539; settings: Homo sapiens, SF-539, read-out: Cytotoxicity (GI50) CNS SF-539
UACC-62 = experiment: NCI-60 cytotoxicity, UACC-62; settings: Homo sapiens, UACC-62, read-out: Cytotoxicity (GI50) Melanoma UACC-62
OVCAR-3 = experiment: NCI-60 cytotoxicity, OVCAR-3; settings: Homo sapiens, OVCAR-3, read-out: Cytotoxicity (GI50) Ovarian Ovcar-3
SN12C = experiment: NCI-60 cytotoxicity, SN12C; settings: Homo sapiens, read-out: Cytotoxicity (GI50) Renal SN12C
HCT-116 = experiment: NCI-60 cytotoxicity, HCT-116; format: cell-based; settings: Homo sapiens, single determinations, Table 2, read-out: Cytotoxicity (GI50) Colon HCT-116
DU-145 = experiment: NCI-60 cytotoxicity, DU-145; format: cell-based; settings: Homo sapiens, single determinations, Table 2, read-out: Cytotoxicity (GI50) Prostate DU-145
[2] = semiquantitative scale, in duplicate, Table 1, read-out: Enzyme Inhibitory Activity Tdp1
[3] = semiquantitative scale, in duplicate, Table 1, read-out: Enzyme Inhibitory Activity Tdp2
[4] = read-out: Cytotoxicity (GI50) MGM
[5] = read-out: MGM (GI50 mean graph midpoint)
[6] = determined in duplicate, Table 2, read-out: Enzyme Inhibitory Activity Tdp1 (IC50)
[7] = read-out: Enzyme Inhibitory Activity Tdp2 (IC50)

Structure (SMILES)	Enzyme Inhibitory Activity Top1 (Top1; Table 1)	Top1 inhibitory activity level (Top1)	IC50 (Tdp1; [2]) [nM]	IC50 (recombinant human TDP2; [3]) [nM]	melting point [°C]	GI50 (MCF-7) [nM]	GI50 (HOP-62) [nM]	GI50 (SF-539) [nM]	GI50 (UACC-62) [nM]	GI50 (OVCAR-3) [nM]	GI50 [1, 4] [nM]	GI50 (SN12C) [nM]	also measured
COc1cnc2c(c1)C(=O)c1c-2n(CCCN2CCC(N)CC2)c(=O)c2cc([N+](=O)[O-])ccc12 [Compound 17, 6-[3-(4-Aminopiperidin-1-yl)propyl]-7-aza-5,6-dihydro-9-methoxy-3-nitro-5,11-dioxo-11H-indeno[1,2-c]isoquinoline]	++	++	1000 to 12000	1000 to 12000	258 to 260								cytotoxicity in the one-concentration preliminary testing ([1]; NCI-60 initial 1-concentration test): low cytotoxicity
COc1cnc2c(c1)C(=O)c1c-2n(CCCN2CCN(CCO)CC2)c(=O)c2cc([N+](=O)[O-])ccc12 [Compound 16, 7-Aza-5,6-dihydro-6-[3-(4-(2-hydroxyethyl)piperazin-1-yl)propyl]-9-methoxy-3-nitro-5,11-dioxo-11H-indeno[1,2-c]isoquinoline]	+++	+++	> 111000	> 111000	214 to 216	142	2760	1700	1220	1460	1660		GI50 [1, 5]: 1650 nM
CNCCCn1c2c(c3ccc([N+](=O)[O-])cc3c1=O)C(=O)c1cc(OC)cnc1-2 [Compound 11]	+++	+++	1000 to 12000	37000 to 111000	259 to 262	1060	30	51	20	174	741	46	GI50 [1, 5]: 714 nM
COc1cnc2c(c1)C(=O)c1c-2n(CCCBr)c(=O)c2cc([N+](=O)[O-])ccc12 [Compound 7, 7-Aza-6-(3-bromopropyl)-5,6-dihydro-9-methoxy-3-nitro-5,11-dioxo-11H-indeno[1,2-c]isoquinoline]	++	++	12000 to 37000	37000 to 111000	170 to 172	46	58	279	82	248	112	269	
COc1cnc2c(c1)C(=O)c1c-2n(CCCN2CCCC2)c(=O)c2cc([N+](=O)[O-])ccc12 [Compound 8, 7-Aza-5,6-dihydro-6-[3-(4-pyrrolidine-1-yl)propyl]-9-methoxy-3-nitro-5,11-dioxo-11H-indeno[1,2-c]isoquinoline]	++	++	1000 to 12000	37000 to 111000	248 to 250	< 10	< 10	31	15	59	45	36	
COc1cnc2c(c1)C(=O)c1c-2n(CCCNC2=NCCS2)c(=O)c2cc([N+](=O)[O-])ccc12 [Compound 12, 7-Aza-5,6-dihydro-6-[3-((4,5-dihydrothiazol-2-yl)amino)propyl]-9-methoxy-3-nitro-5,11-dioxo-11H-indeno[1,2-c]isoquinoline]	++++	++++	1000 to 12000	12000 to 37000	175 to 177	< 10	14	36	< 10	137	58	< 10	
CCNCCCn1c2c(c3ccc([N+](=O)[O-])cc3c1=O)C(=O)c1cc(OC)cnc1-2 [Compound 15, 7-Aza-6-[3-(ethylamino)propyl]-5,6-dihydro-9-methoxy-3-nitro-5,11-dioxo-11H-indeno[1,2-c]isoquinoline]	++++	++++	1000 to 12000	37000 to 111000	266 to 268	19	107	70	27	62	79	53	
COc1cnc2c(c1)C(=O)c1c-2n(CCCN2CCNCC2)c(=O)c2cc([N+](=O)[O-])ccc12 [Compound 10, 7-Aza-5,6-dihydro-9-methoxy-3-nitro-5,11-dioxo-6-[3-(piperazine-1-yl)propyl]-11H-indeno[1,2-c]isoquinoline]	++	++	12000 to 37000	37000 to 111000	134 to 135	36	65	355	175	1190	316	230	
COc1cnc2c(c1)C(=O)c1c-2n(CCCN2CCNCC2)c(=O)c2cc(Cl)ccc12 [Compound 16e, 3-Chloro-9-methoxy-6-(3-(piperazin-1-yl)propyl)-5H-pyrido[3′,2′:4,5]cyclopenta[1,2-c]isoquinoline-5,11(6H)-dione]						89	200	1330	1430	1430	580	489	Enzyme Inhibitory Activity Top1 (Top1; Table 2): +; IC50 (Tdp1; read-out: Enzyme Inhibitory Activity Tdp1 (IC50)): 20200 ± 3700 nM; IC50 (recombinant human TDP2; determined in duplicate, Table 2, read-out: Enzyme Inhibitory Activity Tdp2 (IC50)): > 111000 nM; GI50 (HCT-116): 298 nM; GI50 (DU-145): 242 nM
COc1cnc2c(c1)C(=O)c1c-2n(CCCN2CCNCC2)c(=O)c2cc(F)ccc12 [Compound 17e, 3-Fluoro-9-methoxy-6-(3-(piperazin-1-yl)propyl)-5H-pyrido[3′,2′:4,5]cyclopenta-[1,2-c]isoquinoline-5,11(6H)-dione]						34	66	532	1260	335	218	80	Enzyme Inhibitory Activity Top1 (Top1; Table 2): +; IC50 (Tdp1; [6]): > 111000 nM; IC50 (recombinant human TDP2; [7]): 107000 ± 5200 nM; GI50 (HCT-116): 91 nM; GI50 (DU-145): 62 nM
CCNCCCn1c2c(c3ccc(F)cc3c1=O)C(=O)c1cc(OC)cnc1-2 [Compound 17h, 6-(3-(Ethylamino)propyl)-3-fluoro-9-methoxy-5H-pyrido[3′,2′:4,5]cyclopenta[1,2-c]isoquinoline-5,11(6H)-dione]						42	149	320	341	282	229	151	Enzyme Inhibitory Activity Top1 (Top1; Table 2): ++; IC50 (Tdp1; [6]): > 111000 nM; IC50 (recombinant human TDP2; [7]): 104000 nM; GI50 (HCT-116): 136 nM; GI50 (DU-145): 215 nM
